# Test results as given in ChEMBL document CHEMBL5223149, “The Emerging Landscape of Small-Molecule Therapeutics for the Treatment of Huntington's Disease” (J Med Chem, 2022).
# Key:
# [1] = biological target: cAMP and cAMP-inhibited cGMP 3',5'-cyclic phosphodiesterase 10A (Homo sapiens, UniProt Q9Y233); assay: Inhibition of PDE10A (unknown origin)
# [2] = biological target: T1, Muscleblind-like protein 1 (Homo sapiens, UniProt Q9NR56); assay: Binding affinity to MBNL1 (unknown origin)
# T1 sequence (Q9NR56 whole entry): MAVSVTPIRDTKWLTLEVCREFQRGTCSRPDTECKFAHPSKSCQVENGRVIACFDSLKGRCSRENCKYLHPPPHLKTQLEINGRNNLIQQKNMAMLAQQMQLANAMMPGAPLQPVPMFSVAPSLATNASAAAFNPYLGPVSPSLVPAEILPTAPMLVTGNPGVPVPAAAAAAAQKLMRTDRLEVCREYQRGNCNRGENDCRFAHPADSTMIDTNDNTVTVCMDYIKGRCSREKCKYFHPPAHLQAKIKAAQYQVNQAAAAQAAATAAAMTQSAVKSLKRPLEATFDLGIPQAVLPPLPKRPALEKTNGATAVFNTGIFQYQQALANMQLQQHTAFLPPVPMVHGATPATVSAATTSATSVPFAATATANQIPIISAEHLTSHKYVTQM
# Huntingtin [3] = biological target: T2, Huntingtin (Homo sapiens, UniProt P42858); assay: Binding affinity to mutant HTT (unknown origin) mediated HD exon 1-72Q aggregation assessed as dissociation constant
# Target sequence in this assay (P42858 whole entry, looked up, change not shown): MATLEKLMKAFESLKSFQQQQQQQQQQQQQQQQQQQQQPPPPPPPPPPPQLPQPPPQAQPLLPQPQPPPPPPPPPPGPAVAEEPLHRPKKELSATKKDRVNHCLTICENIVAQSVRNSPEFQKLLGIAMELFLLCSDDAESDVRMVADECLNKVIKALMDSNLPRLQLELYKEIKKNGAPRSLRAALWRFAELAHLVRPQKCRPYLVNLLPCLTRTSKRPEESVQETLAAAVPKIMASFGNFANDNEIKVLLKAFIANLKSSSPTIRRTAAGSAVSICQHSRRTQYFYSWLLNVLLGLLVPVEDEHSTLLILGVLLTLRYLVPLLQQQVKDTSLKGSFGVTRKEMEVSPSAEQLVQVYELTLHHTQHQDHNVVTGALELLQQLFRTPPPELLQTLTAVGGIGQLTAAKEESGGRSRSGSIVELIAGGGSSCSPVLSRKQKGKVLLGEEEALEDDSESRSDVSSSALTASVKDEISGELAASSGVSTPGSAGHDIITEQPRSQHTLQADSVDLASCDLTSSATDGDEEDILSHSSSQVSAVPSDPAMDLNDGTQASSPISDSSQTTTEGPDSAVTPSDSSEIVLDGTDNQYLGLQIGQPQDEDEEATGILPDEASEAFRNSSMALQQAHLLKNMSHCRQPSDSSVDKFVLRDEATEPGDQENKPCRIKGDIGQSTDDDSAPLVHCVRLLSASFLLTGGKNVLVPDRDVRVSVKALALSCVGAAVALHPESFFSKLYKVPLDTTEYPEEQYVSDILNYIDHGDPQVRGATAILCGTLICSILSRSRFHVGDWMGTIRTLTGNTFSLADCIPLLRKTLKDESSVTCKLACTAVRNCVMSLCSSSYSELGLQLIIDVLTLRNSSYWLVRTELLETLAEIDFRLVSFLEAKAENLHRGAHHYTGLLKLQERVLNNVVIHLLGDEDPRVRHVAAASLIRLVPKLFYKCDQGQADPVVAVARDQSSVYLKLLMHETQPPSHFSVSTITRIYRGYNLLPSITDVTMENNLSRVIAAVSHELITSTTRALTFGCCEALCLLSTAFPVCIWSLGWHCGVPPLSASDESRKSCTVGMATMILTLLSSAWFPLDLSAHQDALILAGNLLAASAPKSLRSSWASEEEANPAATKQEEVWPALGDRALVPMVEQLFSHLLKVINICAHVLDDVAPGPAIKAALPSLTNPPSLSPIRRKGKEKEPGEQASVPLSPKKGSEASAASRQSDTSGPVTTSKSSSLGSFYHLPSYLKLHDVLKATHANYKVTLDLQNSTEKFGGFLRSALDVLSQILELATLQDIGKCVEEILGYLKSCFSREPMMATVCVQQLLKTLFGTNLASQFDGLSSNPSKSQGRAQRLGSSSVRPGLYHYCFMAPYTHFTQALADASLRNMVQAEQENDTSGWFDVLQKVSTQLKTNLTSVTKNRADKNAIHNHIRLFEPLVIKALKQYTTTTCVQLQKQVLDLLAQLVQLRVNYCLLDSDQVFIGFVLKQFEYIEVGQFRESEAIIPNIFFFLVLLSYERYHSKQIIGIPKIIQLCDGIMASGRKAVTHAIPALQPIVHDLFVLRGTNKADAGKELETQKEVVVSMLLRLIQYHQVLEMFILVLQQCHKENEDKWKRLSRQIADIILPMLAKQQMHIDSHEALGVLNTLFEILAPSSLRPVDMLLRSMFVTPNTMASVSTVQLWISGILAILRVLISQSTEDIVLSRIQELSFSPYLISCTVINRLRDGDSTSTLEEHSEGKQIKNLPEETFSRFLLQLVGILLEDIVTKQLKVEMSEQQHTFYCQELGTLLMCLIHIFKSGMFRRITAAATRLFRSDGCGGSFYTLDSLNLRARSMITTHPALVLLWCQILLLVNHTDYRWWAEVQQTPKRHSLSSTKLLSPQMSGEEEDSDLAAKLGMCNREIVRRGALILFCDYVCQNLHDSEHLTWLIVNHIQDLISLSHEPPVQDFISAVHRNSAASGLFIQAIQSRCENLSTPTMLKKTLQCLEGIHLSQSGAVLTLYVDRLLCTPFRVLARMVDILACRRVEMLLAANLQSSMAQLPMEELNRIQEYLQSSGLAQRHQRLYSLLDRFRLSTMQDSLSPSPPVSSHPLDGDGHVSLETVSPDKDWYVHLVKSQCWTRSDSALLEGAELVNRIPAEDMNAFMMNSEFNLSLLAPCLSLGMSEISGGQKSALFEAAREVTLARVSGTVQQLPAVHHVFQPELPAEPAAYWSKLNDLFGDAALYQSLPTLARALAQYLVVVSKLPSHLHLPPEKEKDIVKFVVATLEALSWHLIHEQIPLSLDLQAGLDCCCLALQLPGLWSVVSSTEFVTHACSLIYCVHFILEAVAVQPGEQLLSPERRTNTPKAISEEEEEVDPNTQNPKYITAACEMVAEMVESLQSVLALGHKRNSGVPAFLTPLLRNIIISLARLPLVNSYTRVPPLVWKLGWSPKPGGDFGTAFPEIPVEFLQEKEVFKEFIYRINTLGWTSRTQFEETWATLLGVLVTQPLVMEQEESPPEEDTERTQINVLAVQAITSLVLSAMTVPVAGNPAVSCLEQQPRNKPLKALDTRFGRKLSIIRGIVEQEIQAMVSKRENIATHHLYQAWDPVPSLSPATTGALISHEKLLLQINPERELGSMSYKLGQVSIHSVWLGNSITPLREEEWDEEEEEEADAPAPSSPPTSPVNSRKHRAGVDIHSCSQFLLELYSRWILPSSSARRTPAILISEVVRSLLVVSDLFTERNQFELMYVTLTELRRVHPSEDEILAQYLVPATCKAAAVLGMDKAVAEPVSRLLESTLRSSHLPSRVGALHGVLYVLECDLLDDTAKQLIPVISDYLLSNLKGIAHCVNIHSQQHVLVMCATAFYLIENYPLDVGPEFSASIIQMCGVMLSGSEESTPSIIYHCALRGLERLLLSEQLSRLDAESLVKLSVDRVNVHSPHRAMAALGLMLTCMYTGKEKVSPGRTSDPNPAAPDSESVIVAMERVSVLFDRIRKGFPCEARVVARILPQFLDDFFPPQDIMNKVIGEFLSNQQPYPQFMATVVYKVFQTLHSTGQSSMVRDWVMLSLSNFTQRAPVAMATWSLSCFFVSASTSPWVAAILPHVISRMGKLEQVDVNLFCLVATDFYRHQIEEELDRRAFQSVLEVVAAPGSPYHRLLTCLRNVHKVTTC
# [4] = tested on: Huntingtin (Homo sapiens), P42858 [UNDEFINED MUTATION]; assay: Inhibition of mutant HTT (unknown origin) at 100 nM relative to control
# Sequence of Huntingtin (Homo sapiens), P42858 [UNDEFINED MUTATION] (P42858 whole entry, looked up, change not shown): as above
# [5] = biological target: Microtubule-associated protein 1 light chain 3 beta (Homo sapiens, UniProt Q9GZQ8); assay: Binding affinity to LC3B (unknown origin) assessed as dissociation constant
# [6] = biological target: G-protein coupled receptor 52 (Homo sapiens, UniProt Q9Y2T5); assay: Inhibition of GPR52 (unknown origin)
# Huntingtin [7] = biological target: T2, Huntingtin; assay: Inhibition of mutant HTT (unknown origin)
# Target sequence in this assay (P42858 whole entry, looked up, change not shown): as above
# [8] = biological target: NAD(P)H dehydrogenase [quinone] 1 (Homo sapiens) (UniProt P15559); assay: Inhibition of NQO1 (unknown origin)
# Huntingtin [9] = biological target: T2, Huntingtin; assay: Inhibition of HTT (unknown origin)
# Target sequence in this assay (P42858 whole entry): as the sequence (P42858 whole entry, looked up, change not shown) above
# [10] = biological target: Transitional endoplasmic reticulum ATPase (Homo sapiens, UniProt P55072); assay: Inhibition of human wild type VCP (1 to 806 residues) expressed in Escherichia coli BL21 (DE3) incubated for 1 hr in presence of ATP by malachite green staining based analysis
# [11] = biological target: Mitogen-activated protein kinase 10 (Homo sapiens, UniProt P53779); assay: Inhibition of JNK3 (unknown origin)
# Sequence of Mitogen-activated protein kinase 10 (P53779 whole entry): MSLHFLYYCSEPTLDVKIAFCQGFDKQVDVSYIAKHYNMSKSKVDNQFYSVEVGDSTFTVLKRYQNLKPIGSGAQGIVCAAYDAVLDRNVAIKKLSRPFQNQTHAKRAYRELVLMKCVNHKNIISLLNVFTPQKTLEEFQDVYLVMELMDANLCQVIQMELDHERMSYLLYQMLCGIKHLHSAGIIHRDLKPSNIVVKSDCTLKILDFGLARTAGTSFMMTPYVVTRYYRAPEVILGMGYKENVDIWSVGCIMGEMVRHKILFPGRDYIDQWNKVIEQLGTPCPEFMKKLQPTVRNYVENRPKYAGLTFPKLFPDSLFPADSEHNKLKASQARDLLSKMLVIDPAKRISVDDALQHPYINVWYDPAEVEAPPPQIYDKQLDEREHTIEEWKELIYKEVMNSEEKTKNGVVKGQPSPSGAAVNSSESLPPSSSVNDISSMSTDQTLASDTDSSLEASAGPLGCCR
# [12] = biological target: Mitogen-activated protein kinase 14 (Homo sapiens, UniProt Q16539); assay: Inhibition of p38alpha (unknown origin)
# Sequence of Mitogen-activated protein kinase 14 (Q16539 whole entry): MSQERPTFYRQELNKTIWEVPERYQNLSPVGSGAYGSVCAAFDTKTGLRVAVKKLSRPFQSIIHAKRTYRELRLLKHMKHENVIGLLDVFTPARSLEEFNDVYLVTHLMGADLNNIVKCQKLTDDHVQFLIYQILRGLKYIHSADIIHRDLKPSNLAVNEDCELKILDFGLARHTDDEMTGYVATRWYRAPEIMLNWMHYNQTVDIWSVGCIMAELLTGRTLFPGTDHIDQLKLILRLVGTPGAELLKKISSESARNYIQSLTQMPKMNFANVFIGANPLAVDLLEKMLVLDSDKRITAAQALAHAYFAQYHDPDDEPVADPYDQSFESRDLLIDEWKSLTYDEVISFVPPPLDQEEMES
# [13] = biological target: T3, NAD-dependent protein deacetylase sirtuin-2 (Homo sapiens, UniProt Q8IXJ6); assay: Inhibition of human recombinant SIRT2 using alpha-tubulin as substrate by coupled enzymatic analysis
# T3 sequence (Q8IXJ6 whole entry): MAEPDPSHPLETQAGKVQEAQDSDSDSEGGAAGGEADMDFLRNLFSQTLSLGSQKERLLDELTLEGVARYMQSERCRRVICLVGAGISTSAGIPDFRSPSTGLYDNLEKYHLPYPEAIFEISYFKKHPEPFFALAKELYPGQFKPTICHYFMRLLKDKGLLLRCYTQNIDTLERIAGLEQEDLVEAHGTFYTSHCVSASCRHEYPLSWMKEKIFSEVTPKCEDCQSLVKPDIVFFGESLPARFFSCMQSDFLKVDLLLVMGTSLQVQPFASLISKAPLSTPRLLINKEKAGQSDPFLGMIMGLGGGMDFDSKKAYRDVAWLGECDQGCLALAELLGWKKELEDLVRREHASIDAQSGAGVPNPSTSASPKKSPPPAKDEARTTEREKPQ
# [14] = Toxicity in Drosophila infected with huntington disease assessed as survival rate at 1 to 30 uM relative to control; settings: dose 1-30 µM, read-out: Activity
# [15] = biological target: Kynurenine 3-monooxygenase (Homo sapiens, UniProt O15229); assay: Inhibition of KMO (unknown origin)
# [16] = Inhibition of PDI (unknown origin); design: species or system Homo sapiens
# Sequence of cAMP and cAMP-inhibited cGMP 3',5'-cyclic phosphodiesterase 10A (Q9Y233 whole entry): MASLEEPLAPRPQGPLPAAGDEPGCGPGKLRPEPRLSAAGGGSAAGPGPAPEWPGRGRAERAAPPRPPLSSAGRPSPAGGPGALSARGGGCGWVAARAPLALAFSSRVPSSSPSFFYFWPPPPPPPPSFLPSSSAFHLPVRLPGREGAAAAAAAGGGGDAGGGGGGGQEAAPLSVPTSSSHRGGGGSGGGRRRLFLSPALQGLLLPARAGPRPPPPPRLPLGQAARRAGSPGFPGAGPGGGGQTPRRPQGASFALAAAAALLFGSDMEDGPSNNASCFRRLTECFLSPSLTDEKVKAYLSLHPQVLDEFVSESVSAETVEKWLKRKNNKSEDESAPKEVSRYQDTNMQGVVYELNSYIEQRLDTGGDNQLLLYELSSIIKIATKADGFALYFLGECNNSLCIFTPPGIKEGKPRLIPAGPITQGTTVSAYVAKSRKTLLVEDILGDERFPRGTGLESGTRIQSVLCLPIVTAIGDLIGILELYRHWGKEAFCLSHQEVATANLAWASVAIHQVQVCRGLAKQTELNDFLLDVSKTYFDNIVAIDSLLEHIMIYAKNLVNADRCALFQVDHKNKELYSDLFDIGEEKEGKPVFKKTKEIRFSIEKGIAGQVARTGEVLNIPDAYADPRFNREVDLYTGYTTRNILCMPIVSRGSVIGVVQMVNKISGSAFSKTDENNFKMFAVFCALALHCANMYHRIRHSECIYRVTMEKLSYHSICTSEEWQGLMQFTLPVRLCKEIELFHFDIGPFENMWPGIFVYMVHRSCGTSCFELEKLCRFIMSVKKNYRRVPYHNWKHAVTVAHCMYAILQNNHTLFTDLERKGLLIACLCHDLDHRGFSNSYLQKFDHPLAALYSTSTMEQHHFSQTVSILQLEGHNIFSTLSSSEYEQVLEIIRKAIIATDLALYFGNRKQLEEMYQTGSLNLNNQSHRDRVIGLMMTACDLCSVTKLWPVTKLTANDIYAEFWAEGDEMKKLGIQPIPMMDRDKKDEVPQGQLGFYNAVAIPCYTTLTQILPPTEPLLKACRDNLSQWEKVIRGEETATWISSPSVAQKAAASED
smiles,measurement,setting,value
Cc1ccc2c(c1)nc(CCc1coc3ccc(F)cc3c1=O)n2-c1ccccc1,IC50,[1],17 nM
O=c1c(O)c(-c2cc(O)c(O)c(O)c2)oc2cc(O)cc(O)c12 [MYRICETIN],Kd,[2],0.25 nM
COc1ccc(C(=O)c2nc3c(c(-c4ccccc4)c2N)c(=O)oc2ccc(Br)cc23)cc1,Kd,[2],4 nM
Cc1ccc(C(=O)N(CCCN)[C@@H](C2=Nc3cc(I)ccc3CN2Cc2ccccc2)C(C)C)cc1,Kd,Huntingtin [3],100 nM
same,inhibition,[4],40%
same,Kd,[5],100 nM
C=C1C(=O)O[C@@H]2C/C=C(\C)CC3C=C(C[C@H](OC(=O)/C(C)=C\C)[C@@H]12)C(=O)O3 (some centres undefined),IC50,[6],12 µM
Nn1cnc2c(c1=O)C1(CCCC1)Cc1ccccc1-2,EC50,Huntingtin [7],4.9 µM
O=[N+]([O-])c1ccc(Sc2nnc(COc3ccccc3)n2-c2ccccc2)nc1,CD,[8],0.15 µM
O=C1Nc2ccc(I)cc2/C1=C/c1cc(Br)c(O)c(Br)c1,Kd,Huntingtin [3],100 nM
same,inhibition,[4],25%
same,Kd,[5],100 nM
Cc1ccccc1OCC(=O)Nc1ccc(Nc2ccccc2)cc1,IC50,Huntingtin [9],5 µM
O=c1cc(-c2ccccc2)c2c(O)cc(O)cc2o1,inhibition,[4],32%
Cc1cc2c(C(C)C)c(O)c(O)c(C=O)c2c(O)c1-c1c(C)cc2c(C(C)C)c(O)c(O)c(C=O)c2c1O,IC50,[10],6.53 µM
Cc1ccc2c(c1)nc(CCc1coc3ccccc3c1=O)n2Cc1nccs1,IC50,[1],500 nM
COC(C)CC(C)Nc1cc(-c2c(-c3ccc(F)cc3)nc(S/C=C\C(=O)O)n2CC(OC)OC)ccn1 (centres undefined),IC50,[11],26 nM
same,IC50,[12],34 nM
O=[N+]([O-])c1ccc(Sc2nnc(COc3ccccc3)n2-c2ccccc2)c2ncccc12,IC50,[13],1200 nM
same,survival,[14],20.7%
FC1(F)CCC(Nc2nccc(-c3cn[nH]c3C3(C(F)(F)F)CC3)n2)CC1,IC50,[11],94 nM
same,IC50,[12],6080 nM
COCCn1c(SC)nc(-c2ccc(F)cc2)c1-c1ccnc(NC(C)=O)c1,IC50,[11],202 nM
O=C(O)c1cc(-c2ccc(OC3CC3)c(Cl)c2)ncn1,IC50,[15],500 nM
Clc1ccc(-c2[nH]ncc2-c2ccncn2)cc1,IC50,[11],433 nM
same,IC50,[12],24 nM
COC(=O)C1(C)c2[nH]c3ccccc3c2CCN1C(=O)CCl (centres undefined),EC50,[16],1500 nM
same,IC50,[16],22 µg/mL
C=CCNc1ncnc2ccc(Br)cc12,EC50,Huntingtin [7],> 50 µM
O=C1Nc2ccc(Br)cc2/C1=C/c1cc(O)c(O)c(Br)c1,inhibition,[4],30%
O=C1OC2(c3ccc(O)cc3Oc3cc(O)ccc32)c2ccc(NC(=S)Nc3ccc(Nc4cc(-c5[nH]cnc5-c5ccc(F)cc5)ccn4)cc3)cc21,IC50,[11],74 nM
same,IC50,[12],29 nM
C/C(=C/C(=O)c1ccc(Cl)cc1)Nc1cccc(O)c1,EC50,Huntingtin [7],17.4 µM
CSc1nc(C)c(-c2ccnc(Nc3ccc(N4CCOCC4)cc3)c2)[nH]1,IC50,[12],> 10000 nM
